Laboratory results as given in PubChem BioAssay (NCI).
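The concentration for 50% growth inhibition is given as GI50. TGI is the concentration that stops growth completely.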

What was measured:
Assay in all cases: NCI-60 cell line screen, 384-well format
NCI-H226 lung = tested on: NCI-H226 lung
OVCAR-5 ovarian = tested on: OVCAR-5 ovarian
UACC-62 melanoma = tested on: UACC-62 melanoma
PC-3 prostate = tested on: PC-3 prostate
HS 578T breast = tested on: HS 578T breast
NCI-H322M lung = tested on: NCI-H322M lung
HOP-92 NSCLC = tested on: HOP-92 NSCLC
SK-OV-3 ovarian = tested on: SK-OV-3 ovarian
MDA-MB-468 breast = tested on: MDA-MB-468 breast
HL-60(TB) leukemia = tested on: HL-60(TB) leukemia
COLO 205 colon = tested on: COLO 205 colon
RPMI-8226 leukemia = tested on: RPMI-8226 leukemia
OVCAR-4 ovarian = tested on: OVCAR-4 ovarian
KM12 colon = tested on: KM12 colon
A549 NSCLC = tested on: A549 NSCLC
A498 renal = tested on: A498 renal
CAKI-1 renal = tested on: CAKI-1 renal
OVCAR-8 ovarian = tested on: OVCAR-8 ovarian
MCF7 breast = tested on: MCF7 breast
CCRF-CEM leukemia = tested on: CCRF-CEM leukemia
HCT-15 colon = tested on: HCT-15 colon
SK-MEL-5 melanoma = tested on: SK-MEL-5 melanoma
NCI/ADR-RES ovarian = tested on: NCI/ADR-RES ovarian
786-0 renal = tested on: 786-0 renal
SN12C renal = tested on: SN12C renal
OVCAR-3 ovarian = tested on: OVCAR-3 ovarian
NCI-H522 lung = tested on: NCI-H522 lung
T-47D breast = tested on: T-47D breast
BT-549 breast = tested on: BT-549 breast
SF-268 CNS = tested on: SF-268 CNS
ACHN renal = tested on: ACHN renal
IGROV1 ovarian = tested on: IGROV1 ovarian
HT29 colon = tested on: HT29 colon
DU-145 prostate = tested on: DU-145 prostate
SK-MEL-28 melanoma = tested on: SK-MEL-28 melanoma
HOP-62 NSCLC = tested on: HOP-62 NSCLC
UACC-257 melanoma = tested on: UACC-257 melanoma
NCI-H23 lung = tested on: NCI-H23 lung
SNB-75 CNS = tested on: SNB-75 CNS
MDA-MB-231 breast = tested on: MDA-MB-231 breast
TK-10 renal = tested on: TK-10 renal
SR leukemia = tested on: SR leukemia
MOLT-4 leukemia = tested on: MOLT-4 leukemia
NCI-H460 NSCLC = tested on: NCI-H460 NSCLC
EKVX NSCLC = tested on: EKVX NSCLC
SF-295 CNS = tested on: SF-295 CNS
SNB-19 CNS = tested on: SNB-19 CNS
SK-MEL-2 melanoma = tested on: SK-MEL-2 melanoma
HCC-2998 colon = tested on: HCC-2998 colon
M14 melanoma = tested on: M14 melanoma
U251 glioblastoma = tested on: U251 glioblastoma
SF-539 CNS = tested on: SF-539 CNS
SW-620 colon = tested on: SW-620 colon
RXF 393 renal = tested on: RXF 393 renal
MDA-MB-435 melanoma = tested on: MDA-MB-435 melanoma
MALME-3M melanoma = tested on: MALME-3M melanoma

## CC(C)(C)c1ccc(Oc2ccc(N)cn2)cc1
NCI-H226 lung
  GI50: 10.8 µM
  TGI: 52.3 µM
OVCAR-5 ovarian
  GI50: > 100 µM
  TGI: > 100 µM
UACC-62 melanoma
  GI50: > 100 µM
  TGI: > 100 µM
PC-3 prostate
  GI50: 43.5 µM
  TGI: > 100 µM
HS 578T breast
  GI50: 29.5 µM
  TGI: > 100 µM
NCI-H322M lung
  GI50: 68.2 µM
  TGI: > 100 µM
HOP-92 NSCLC
  GI50: 34.8 µM
  TGI: > 100 µM
SK-OV-3 ovarian
  GI50: > 100 µM
  TGI: > 100 µM
MDA-MB-468 breast
  GI50: 21 µM
  TGI: 57 µM
HL-60(TB) leukemia
  GI50: 479 nM
  TGI: 2820 nM
COLO 205 colon
  GI50: 38.6 µM
  TGI: 86.6 µM
RPMI-8226 leukemia
  GI50: 231 nM
  TGI: 563 nM
OVCAR-4 ovarian
  GI50: 28.1 µM
  TGI: > 100 µM
KM12 colon
  GI50: 44.3 µM
  TGI: > 100 µM
A549 NSCLC
  GI50: 20.4 µM
  TGI: > 100 µM
A498 renal
  GI50: 46.5 µM
  TGI: > 100 µM
CAKI-1 renal
  GI50: 24.1 µM
  TGI: > 100 µM
OVCAR-8 ovarian
  GI50: 52.1 µM
  TGI: > 100 µM
MCF7 breast
  GI50: 74.2 µM
  TGI: > 100 µM
CCRF-CEM leukemia
  GI50: 302 nM
  TGI: 1240 nM
HCT-15 colon
  GI50: 29.4 µM
  TGI: > 100 µM
SK-MEL-5 melanoma
  GI50: 22.3 µM
  TGI: 51.8 µM
NCI/ADR-RES ovarian
  GI50: 36.4 µM
  TGI: > 100 µM
786-0 renal
  GI50: 24.7 µM
  TGI: > 100 µM
SN12C renal
  GI50: 57.7 µM
  TGI: > 100 µM
OVCAR-3 ovarian
  GI50: 24.9 µM
  TGI: > 100 µM
NCI-H522 lung
  GI50: 14.7 µM
  TGI: 39.9 µM
T-47D breast
  GI50: 31.2 µM
  TGI: > 100 µM
BT-549 breast
  GI50: 12.6 µM
  TGI: 65 µM
SF-268 CNS
  GI50: 26 µM
  TGI: > 100 µM
ACHN renal
  GI50: > 100 µM
  TGI: > 100 µM
IGROV1 ovarian
  GI50: 97.3 µM
  TGI: > 100 µM
HT29 colon
  GI50: 24.9 µM
  TGI: 57.7 µM
DU-145 prostate
  GI50: 64.3 µM
  TGI: > 100 µM
SK-MEL-28 melanoma
  GI50: > 100 µM
  TGI: > 100 µM
HOP-62 NSCLC
  GI50: 33 µM
  TGI: > 100 µM
UACC-257 melanoma
  GI50: 36 µM
  TGI: > 100 µM
NCI-H23 lung
  GI50: 29.1 µM
  TGI: 85.8 µM
SNB-75 CNS
  GI50: 22.1 µM
  TGI: > 100 µM
MDA-MB-231 breast
  GI50: 28.4 µM
  TGI: > 100 µM
TK-10 renal
  GI50: 93 µM
  TGI: > 100 µM
SR leukemia
  GI50: 14.3 µM
  TGI: 32.8 µM
MOLT-4 leukemia
  GI50: 4.83 µM
  TGI: 19.3 µM
NCI-H460 NSCLC
  GI50: 32.7 µM
  TGI: > 100 µM
EKVX NSCLC
  GI50: 44.2 µM
  TGI: > 100 µM
SF-295 CNS
  GI50: > 100 µM
  TGI: > 100 µM
SNB-19 CNS
  GI50: > 100 µM
  TGI: > 100 µM
SK-MEL-2 melanoma
  GI50: > 100 µM
  TGI: > 100 µM
HCC-2998 colon
  GI50: 17 µM
  TGI: 48.6 µM
M14 melanoma
  GI50: > 100 µM
  TGI: > 100 µM
U251 glioblastoma
  GI50: 35.8 µM
  TGI: > 100 µM
SF-539 CNS
  GI50: 43.4 µM
  TGI: > 100 µM
SW-620 colon
  GI50: 85.7 µM
  TGI: > 100 µM
RXF 393 renal
  GI50: 21.8 µM
  TGI: 66.2 µM
MDA-MB-435 melanoma
  GI50: 92.2 µM
  TGI: > 100 µM
MALME-3M melanoma
  GI50: 26.9 µM
  TGI: 72.9 µM
